{
  "source": "patent US5750354A",
  "about": "“Lipoxin transport system and uses therefor” (priority 1994, dated 1998)",
  "key": {"[1]": {"tested_on": "myeloid bone marrow colony formation", "conditions": "10^-10 M range, with suboptimal GM-CSF; cited from earlier work"}, "human neutrophils": {"tested_on": "human neutrophils", "conditions": "not told"}, "[2]": {"conditions": "cited from earlier work"}, "[3]": {"assay": "RP-HPLC analysis of LXA4 integrity after exposure to inhibitors", "type": "physicochemical", "conditions": "30 min of exposure"}, "[4]": {"molecular_target": "T1, specific lipoxin receptors (Homo sapiens, UniProt P25090)", "T1 sequence (P25090 1-351)": "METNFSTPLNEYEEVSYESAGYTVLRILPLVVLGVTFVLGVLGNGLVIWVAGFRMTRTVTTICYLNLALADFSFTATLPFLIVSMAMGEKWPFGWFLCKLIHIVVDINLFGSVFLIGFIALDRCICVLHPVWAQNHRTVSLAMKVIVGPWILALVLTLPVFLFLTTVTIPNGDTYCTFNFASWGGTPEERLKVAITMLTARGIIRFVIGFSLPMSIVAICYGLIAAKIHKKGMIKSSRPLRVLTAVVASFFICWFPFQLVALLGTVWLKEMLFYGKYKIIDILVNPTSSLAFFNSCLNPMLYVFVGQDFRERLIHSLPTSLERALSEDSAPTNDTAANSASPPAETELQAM", "conditions": "4° C.; cited from earlier work"}, "[5]": {"tested_on": "retinoic acid-induced HL-60 cells", "assay": "[3H]LXA4 uptake into retinoic acid-induced HL-60 cells", "type": "cell-based, human", "conditions": "Medium, 5 nM, 1-30 min", "protocol": "(§1) HL-60 Cells: HL-60 cells were seeded into RPMI medium supplemented with 100 U/ml penicillin, 100 μg/ml streptomycin, and 10% fetal calf serum (Hyclone, Logan, Utah) and grown at 37° C. in 250 ml flasks in a 5% CO2 /95% air atmosphere. Cells were induced to differentiate toward a neutrophil-like phenotype by exposure to 1 μM retinoic acid for 5 days.\n(§2) Human red cells, lymphocytes, and platelets were isolated from peripheral blood as described under Methods. Undifferentiated HL-60 cells were grown in culture according to standard protocols. Differentiated HL-60 cells were obtained by exposing cells to 1 μM retinoic acid for 5 days in culture. After harvesting and isolation, all cells were kept in the standard medium for 1 hour at 37° C. prior to assay. […] Results represent the means±SEM of three-four separate experiments for each cell type."}, "neutrophils [6]": {"tested_on": "neutrophils", "conditions": "37° C.; cited from earlier work"}, "[7]": {"molecular_target": "T1, specific lipoxin receptors", "assay": "[3H]LXA4 ligand binding to human neutrophils", "protocol": "Influx rates were calculated by fitting the data points to a single exponential equation (Eq. 1). Results have been taken from three experiments based upon duplicate determinations. […] Specific binding was taken as the difference between total and non-specific binding. […] Results are from three separate experiments, each performed in triplicate."}, "[8]": {"tested_on": "unstimulated human platelets", "assay": "[3H]LXA4 uptake into platelets", "type": "cell-based", "conditions": "Medium, 5 nM, 1-30 min", "protocol": "Platelets: Platelets were purified to homogeneity from acid citrate dextrose-treated blood according to established protocols (Romano, M. and Serhan, C. N. (1992) Biochemistry 31:8269-8277).\nas §2"}, "protein kinase C (PKC)": {"tested_on": "protein kinase C (PKC)", "conditions": "about 10 nM; cited from earlier work"}, "[9]": {"tested_on": "unstimulated human lymphocytes", "assay": "[3H]LXA4 uptake into lymphocytes", "type": "cell-based", "conditions": "Medium, 5 nM, 1-30 min", "protocol": "Lymphocvtes: The lymphocyte-rich interface layer was taken at the Ficoll-Hypaque gradient step of the neutrophil purification procedure. Platelets were removed by slow-speed centrifugation (see below) and contaminating monocytes and neutrophils by adherence to plastic Petri dishes for 1 hour at 37 ° C.\nas §2"}, "[10]": {"tested_on": "human mononuclear cell-colony formation", "conditions": "cited from earlier work"}, "[11]": {"tested_on": "renal vasoconstrictor actions of LTD4", "conditions": "prior exposure, nM; cited from earlier work"}, "asthmatic patients": {"tested_on": "asthmatic patients", "conditions": "micromolar amounts via inhalation; cited from earlier work"}, "[12]": {"tested_on": "undifferentiated HL-60 cells", "assay": "[3H]LXA4 uptake into undifferentiated HL-60 cells", "type": "cell-based, human", "conditions": "Medium, 5 nM, 1-30 min", "protocol": "as §1, §2"}, "[13]": {"tested_on": "polymorphonuclear leukocytes", "conditions": "cited from earlier work"}, "[14]": {"tested_on": "unstimulated human erythrocytes", "assay": "[3H]LXA4 uptake into erythrocytes", "type": "cell-based", "conditions": "Medium, 5 nM, 1-30 min", "protocol": "Red Blood Cells (RBC): RBC were obtained directly from the heparinized blood of normal human donors. During repeated (four) washing steps, the uppermost portion of the cell pellets was aspirated and discarded to remove residual minor contamination of buffy coat cells.\nas §2"}, "[15]": {"tested_on": "LTD4- and LTB4-mediated inflammation", "conditions": "in vivo; cited from earlier work"}, "[16]": {"conditions": "nM levels; cited from earlier work"}, "lipoxin transport system": {"tested_on": "lipoxin transport system", "assay": "[3H]LXA4 influx into human neutrophils (unidirectional tracer flux)", "conditions": "combined data: Control, 0.4 mM SITS, 1 mM probenecid, Na+-free medium, high K+ medium; 5 nM LXA4"}, "neutrophils [17]": {"tested_on": "neutrophils", "assay": "Phagocytosis of opsonized sheep red blood cells by neutrophils", "type": "cell-based, human", "protocol": "Neutrophils were prepared as described in the general methodology and suspended at a concentration of 10×10^6 -15×10^6 cells/ml in Hepes Hanks buffer, pH 7.4, supplemented with 1 mg/ml BSA, 1 mg/ml glucose, 0.5 mM MgCl2 and 1.0 mM CaCl2 --2H2 O.\nThe sheep red blood cells (SRBCs) were prepared by washing the cells with 1× veronal-buffered saline (VBS), incubating the cells with a 1:500 dilution of rabbit anti-SRBC IgG antibody at 37° C. for 15 minutes, centrifuging the cells at 2000 rpm for 5 minutes at 4° C. and washing the cells twice with 1×VBS. SRBCs were resuspended at a final concentration of 10×10^8 cells/ml.\nEach component was pipetted separately to the bottom of a 12×75 mm test tube to allow thorough mixing of the components.\nTo each 100 μl mixture was added 15 μl of opsonized SRBCs to start the phagocytosis reaction. The tubes were vortexed and placed in a 37° C. incubator for 30 minutes. After 30 minutes, the tubes were placed on ice to stop the reaction.\nNon-phagocytosed SRBCs were lysed by adding 1.0 ml of 0.83% NH4 Cl to each tube, with shaking, and centrifuging the tubes quickly at 1500 rpm for 3 minutes. The supernatant was removed and the pellets were resuspended in 30 gl of PBS. The 30 μl solution was placed onto a polylysine-coated microscope slide and after 15 minutes the excess solution was removed from the slide. The cells on the slide were fixed with 1% glutaraldehyde for 5 minutes and then the excess glutaraldehyde was removed. The cells were stained with Giemsa Stain by immersing the slide in the stain for 25 minutes, rinsing the slide with water and allowing the slide to dry overnight.\nThe slides were examined with a light microscope at 100×power. SRBCs which were phagocytosed by neutrophils were visible as yellow cells within blue-stained neutrophils. The results for each reaction were expressed as a phagocytic index, representing the number of SRBCs phagocytosed per 100 neutrophils. […]"}},
  "note": "“Also recorded” adds a separate entry of the source.",
  "data": [
    {"smiles": "CCCCC[C@H](O)/C=C/C=C\\C=C\\C=C\\[C@@H](O)[C@@H](O)CCCC(=O)O", "note": "[LXA4, (5S,6R,15S)-trihydroxy-7,9,13-trans-11-cis-eicosatetraenoic acid]", "values": [
      {"measurement": "cell proliferation / colony formation", "setting": "[1]", "value": "stimulates cell proliferation"},
      {"measurement": "efflux final value (relative cell content)", "setting": "human neutrophils", "value": "0.54±0.03"},
      {"measurement": "pK' of the carboxylic acid moiety", "setting": "[2]", "value": "~ 3.8"},
      {"measurement": "integrity after exposure to DISA, PCP, UK-5099, and mersalyl", "setting": "[3]", "value": "preservation of the integrity"},
      {"measurement": "binding sites", "setting": "[4]", "value": "~ 1830 sites/cell"},
      {"measurement": "half-time for binding", "setting": "[4]", "value": ".15 s"},
      {"measurement": "[3H]LXA4 Uptake Rate", "setting": "[5]", "value": "0.73 ± 0.15", "unit": "fmol/10^6 cells/min"},
      {"measurement": "metabolic transformation in neutrophils", "setting": "neutrophils [6]", "value": "not subject to metabolic transformation"},
      {"measurement": "[3H]LXA4 Binding, total", "setting": "[7]; Medium, 0.3 nM [3H]LXA4, 4° C., 5 min, no unlabeled LXA4", "value": "1.05 ± 0.03", "unit": "fmol/10^6 cells"},
      {"measurement": "[3H]LXA4 Binding, non-specific", "setting": "[7]; Medium, + unlabeled LXA4 0.3 μM", "value": "0.40 ± 0.08", "unit": "fmol/10^6 cells"},
      {"measurement": "specific binding as share of total binding", "setting": "[7]; displaced by 1,000-fold excess unlabeled LXA4", "value": "~ 70%"},
      {"measurement": "[3H]LXA4 Binding, non-specific", "setting": "[7]; pHo 6.40, + unlabeled LXA4 0.3 μM", "value": "0.39 ± 0.04", "unit": "fmol/10^6 cells"},
      {"measurement": "[3H]LXA4 Binding, total", "setting": "[7]; pHo 6.40, no unlabeled LXA4", "value": "1.02 ± 0.09", "unit": "fmol/10^6 cells"},
      {"measurement": "[3H]LXA4 Binding, non-specific", "setting": "[7]; pHo 8.40, + unlabeled LXA4 0.3 μM", "value": "0.42 ± 0.09", "unit": "fmol/10^6 cells"},
      {"measurement": "[3H]LXA4 Binding, total", "setting": "[7]; pHo 8.40, no unlabeled LXA4", "value": "1.19 ± 0.12", "unit": "fmol/10^6 cells"},
      {"measurement": "[3H]LXA4 Uptake Rate", "setting": "[8]", "value": "-0.0003 ± 0.0015", "unit": "fmol/10^6 cells/min"},
      {"measurement": "effect on PKC activity", "setting": "protein kinase C (PKC)", "value": "enhance"},
      {"measurement": "[3H]LXA4 Uptake Rate", "setting": "[9]", "value": "0.0019 ± 0.0048", "unit": "fmol/10^6 cells/min"},
      {"measurement": "mononuclear cell-colony formation", "setting": "[10]", "value": "stimulates"},
      {"measurement": "renal vasoconstriction by LTD4", "setting": "[11]", "value": "blocks renal vasoconstrictor actions"},
      {"measurement": "bronchoconstriction", "setting": "asthmatic patients", "value": "blocks bronchoconstriction"},
      {"measurement": "[3H]LXA4 Uptake Rate", "setting": "[12]", "value": "0.11 ± 0.02", "unit": "fmol/10^6 cells/min"},
      {"measurement": "chemotaxis", "setting": "[13]", "value": "inhibits chemotaxis"},
      {"measurement": "[3H]LXA4 Uptake Rate", "setting": "[14]", "value": "0.0014 ± 0.0006", "unit": "fmol/10^6 cells/min"},
      {"measurement": "leukotriene-mediated inflammation", "setting": "[15]", "value": "inhibits"},
      {"measurement": "vasodilation", "setting": "[16]", "value": "elicit prompt vasodilation"},
      {"measurement": "final [3H]LXA4 uptake (combined data)", "setting": "lipoxin transport system", "value": "7.26±0.26", "unit": "fmol/10^6 cells"},
      {"measurement": "initial [3H]LXA4 influx rate (combined data)", "setting": "lipoxin transport system", "value": "0.57±0.09", "unit": "fmol/10^6 cells/min"},
      {"measurement": "effect on neutrophil phagocytosis, phagocytic index", "setting": "neutrophils [17]; 100 nM or 1000 nM, pH 7.4, 37° C., 30 minutes", "value": "more effective at inhibiting phagocytosis than LXB4; also recorded: inhibit phagocytosis"},
      {"measurement": "pH-dependence of inhibition of neutrophil phagocytosis", "setting": "neutrophils [17]; extracellular pH 6.4, 7.4, 8.4", "value": "increases as the extracellular pH is decreased"}
    ]}
  ]
}
